Results: patent US9708336B2, “Metallo-beta-lactamase inhibitors” (priority 2014, dated 2017)
Where two headings read alike, the source gives them in different places.

Assays:
NDM-1 = NDM-1 (Klebsiella pneumoniae, UniProt C7C422); assay: biochemical; assay type: biochemical; details: read-out: NDM-1 IC50
[1] = test system: Klebsiella pneumoniae expressing VIM-1 (IHMA599644); assay: Antibiotic potentiation activity: synergistic concentration (MITC95) with imipenem, OD600 growth; assay type: cell-based; details: for Klebsiella pneumoniae MITC95: 95% growth inhibition; for Klebsiella pneumoniae expressing VIM-1 (IHMA 599644) MITC95: concentration giving 95% inhibition of bacterial growth
Method in brief: (§1)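 Each strain, suspended in saline from overnight colonies and diluted 1:100 into 1.1× CAMHB, is dosed with imipenem at 4 μg/ml (or 1 μg/ml) plus compound, incubated 22–24 h at 35 °C and read by absorbance.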

[2] = test system: Escherichia coli expressing NDM-1 (CLB30005); assay: as above; assay type: cell-based; details: for Escherichia coli MITC95: Escherichia coli expressing NDM-1 (CLB30005), 95% growth inhibition; for Escherichia coli expressing NDM-1 (CLB 30005) MITC95: concentration giving 95% inhibition of bacterial growth
Method in brief: as §1

[3] = test system: Serratia marcescens expressing IMP-1 (CL5741); assay: as above; assay type: cell-based; details: for Serratia marcescens MITC95: 95% growth inhibition; for Serratia marcescens expressing IMP-1 (CL5741) MITC95: concentration giving 95% inhibition of bacterial growth
Method in brief: as §1

IMP-1 = IMP-1 (Serratia marcescens, UniProt P52699); assay: biochemical; assay type: biochemical; details: read-out: IMP-1 IC50
Chain of IMP-1 (P52699 whole entry, looked up): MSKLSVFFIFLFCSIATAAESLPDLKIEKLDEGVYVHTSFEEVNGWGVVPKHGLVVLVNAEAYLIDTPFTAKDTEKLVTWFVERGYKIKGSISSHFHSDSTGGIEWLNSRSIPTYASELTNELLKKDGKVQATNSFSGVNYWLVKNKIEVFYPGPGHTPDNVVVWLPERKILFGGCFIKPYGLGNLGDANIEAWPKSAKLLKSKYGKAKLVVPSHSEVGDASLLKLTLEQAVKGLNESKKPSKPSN

VIM-1 = VIM-1 (Pseudomonas aeruginosa (strain ATCC 15692 / DSM 22644 / CIP 104116 / JCM 14847 / LMG 12228 / 1C / PRS 101 / PAO1), UniProt A0A0F7KYQ8); assay: Enzyme activity: determination of IC50, fluorescence assay with CCF2-FA substrate (VIM-1); assay type: biochemical
[4] = test system: Escherichia coli expressing NDM-1 (CLB30016); assay: Antibiotic potentiation activity: synergistic concentration (MITC95) with imipenem, OD600 growth; assay type: cell-based; details: for Escherichia coli MITC95: 95% growth inhibition
Method in brief: as §1

[5] = NDM-1 enzyme, CCF2-FA fluorescence assay
[6] = Klebsiella pneumoniae expressing VIM-1 (IHMA599644)
[7] = Serratia marcescens expressing IMP-1 (CL5741)
[8] = fluorescence assay with CCF2-FA substrate
[9] = IMP-1 enzyme, CCF2-FA fluorescence assay
[10] = fluorescence assay with CCF2-FA substrate, read-out: VIM-1 IC50

Chain of NDM-1 (C7C422 whole entry, looked up, species assumed): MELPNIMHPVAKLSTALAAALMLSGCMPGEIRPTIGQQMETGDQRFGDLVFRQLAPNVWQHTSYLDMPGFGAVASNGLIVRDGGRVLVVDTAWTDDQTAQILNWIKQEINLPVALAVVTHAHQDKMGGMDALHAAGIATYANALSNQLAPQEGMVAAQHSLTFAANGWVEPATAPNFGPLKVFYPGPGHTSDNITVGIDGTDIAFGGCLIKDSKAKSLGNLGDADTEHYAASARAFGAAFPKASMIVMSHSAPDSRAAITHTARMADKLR

COC(=O)c1ccc(-c2nn[nH]n2)c(S(N)(=O)=O)c1 [Example 255, Methyl 3-sulfamoyl-4-(2H-tetrazol-5-yl)benzoate]
IC50 (NDM-1; [5]): 699 nM | Klebsiella pneumoniae MITC95 [1, 6]: >200 µM | Escherichia coli MITC95 [2]: 25 µM | Serratia marcescens MITC95 [3, 7]: >200 µM

NS(=O)(=O)c1cccc(-c2nccs2)c1-c1nn[nH]n1 [Example 35, 2-(2H-tetrazol-5-yl)-3-(1,3-thiazol-2-yl)benzenesulfonamide]
IC50 (NDM-1; [8]): 138 nM | Klebsiella pneumoniae expressing VIM-1 (IHMA 599644) MITC95 [1]: 100 µM | Escherichia coli expressing NDM-1 (CLB 30005) MITC95 [2]: 1.953 µM | Serratia marcescens expressing IMP-1 (CL5741) MITC95 [3]: 50 µM | IC50 (IMP-1; [8]): 2680 nM

NS(=O)(=O)c1cncc(-c2ccc(CO)cc2)c1-c1nnn[nH]1 [Example 189, 5-(4-(Hydroxymethyl)phenyl)-4-(1H-tetrazol-5-yl)pyridine-3-sulfonamide]
IC50 (NDM-1; [8]): 23.2 nM | IC50 (VIM-1; VIM-1 IC50, fluorescence assay with CCF2-FA substrate): 685 nM | Klebsiella pneumoniae expressing VIM-1 (IHMA 599644) MITC95 [1]: 100 µM | Escherichia coli expressing NDM-1 (CLB 30005) MITC95 [2]: 1.563 µM | IC50 (IMP-1; [8]): 704 nM

CN(C(=O)c1ccc(-c2cccc(S(N)(=O)=O)c2-c2nn[nH]n2)cc1)C1CCOCC1 [Example 77, N-methyl-3′-sulfamoyl-N-(tetrahydro-2H-pyran-4-yl)-2′-(2H-tetrazol-5-yl)biphenyl-4-carboxamide]
IC50 (NDM-1; [8]): 12 nM | Klebsiella pneumoniae expressing VIM-1 (IHMA 599644) MITC95 [1]: >200 µM | Escherichia coli expressing NDM-1 (CLB 30005) MITC95 [2]: 9.375 µM | Serratia marcescens expressing IMP-1 (CL5741) MITC95 [3]: 28.13 µM | IC50 (IMP-1; [8]): 53.8 nM

CCOC(=O)CCn1cc(-c2cccc(S(N)(=O)=O)c2-c2nn[nH]n2)cn1 [Example 110, ethyl 3-{4-[3-sulfamoyl-2-(2H-tetrazol-5-yl)phenyl]-1H-pyrazol-1-yl}propanoate]
IC50 (NDM-1; [8]): 51.9 nM | Klebsiella pneumoniae expressing VIM-1 (IHMA 599644) MITC95 [1]: >200 µM | Escherichia coli expressing NDM-1 (CLB 30005) MITC95 [2]: 9.375 µM | Serratia marcescens expressing IMP-1 (CL5741) MITC95 [3]: 28.13 µM | IC50 (IMP-1; [8]): 445 nM

NS(=O)(=O)c1nccc(-c2ccc(C(=O)NC3CCOCC3)cc2)c1-c1nnn[nH]1 [Example 186, 4-(2-Sulfamoyl-3-(1H-tetrazol-5-yl)pyridin-4-yl)-N-(tetrahydro-2H-pyran-4-yl)benzamide]
IC50 (NDM-1; [8]): 97.1 nM | Klebsiella pneumoniae expressing VIM-1 (IHMA 599644) MITC95 [1]: >200 µM | Escherichia coli expressing NDM-1 (CLB 30005) MITC95 [2]: 18.75 µM | Serratia marcescens expressing IMP-1 (CL5741) MITC95 [3]: 100 µM | IC50 (IMP-1; [8]): 564 nM

NS(=O)(=O)c1cccc(C#CCN2CCC(=O)CC2)c1-c1nn[nH]n1 [Example 146, 3-[3-(4-oxopiperidin-1-yl)prop-1-yn-1-yl]-2-(2H-tetrazol-5-yl)benzenesulfonamide]
IC50 (NDM-1; [8]): 65.5 nM | Klebsiella pneumoniae expressing VIM-1 (IHMA 599644) MITC95 [1]: >200 µM | Escherichia coli expressing NDM-1 (CLB 30005) MITC95 [2]: 1.172 µM | Serratia marcescens expressing IMP-1 (CL5741) MITC95 [3]: 50 µM | IC50 (IMP-1; [8]): 766 nM

NS(=O)(=O)c1ccc(O)cc1-c1nn[nH]n1 [Example 254]
IC50 (VIM-1; VIM-1 enzyme, CCF2-FA fluorescence assay, read-out: VIM-1 IC50): 20000 nM | Klebsiella pneumoniae MITC95 [1, 6]: >200 µM | Escherichia coli MITC95 [2]: 3.125 µM | Serratia marcescens MITC95 [3, 7]: >200 µM

NS(=O)(=O)c1cccc(-c2ncccn2)c1-c1nn[nH]n1 [Example 39, 3-pyrimidin-2-yl-2-(2H-tetrazol-5-yl)benzenesulfonamide]
IC50 (NDM-1; [8]): 346 nM | Klebsiella pneumoniae expressing VIM-1 (IHMA 599644) MITC95 [1]: >200 µM | Escherichia coli expressing NDM-1 (CLB 30005) MITC95 [2]: 1.563 µM | Serratia marcescens expressing IMP-1 (CL5741) MITC95 [3]: 50 µM | IC50 (IMP-1; [8]): 2570 nM

NS(=O)(=O)c1cccc(-c2ccnc(CO)c2)c1-c1nn[nH]n1 [Example 92, 3-[2-(hydroxymethyl)pyridin-4-yl]-2-(2H-tetrazol-5-yl)benzenesulfonamide]
Escherichia coli expressing NDM-1 (CLB 30005) MITC95 [2]: 0.3906 µM | Serratia marcescens expressing IMP-1 (CL5741) MITC95 [3]: 50 µM

Cn1cncc1-c1cccc(S(N)(=O)=O)c1-c1nn[nH]n1 [Example 43, 3-(1-methyl-1H-imidazol-5-yl)-2-(2H-tetrazol-5-yl)benzenesulfonamide]
IC50 (NDM-1; [8]): 310 nM | Klebsiella pneumoniae expressing VIM-1 (IHMA 599644) MITC95 [1]: >200 µM | Escherichia coli expressing NDM-1 (CLB 30005) MITC95 [2]: 1.172 µM | Serratia marcescens expressing IMP-1 (CL5741) MITC95 [3]: 75 µM | IC50 (IMP-1; [8]): 2090 nM

NS(=O)(=O)c1nccc(-c2cccnc2)c1-c1nnn[nH]1 [Example 193, 3′-(1H-tetrazol-5-yl)-[3,4′-bipyridine]-2′-sulfonamide]
IC50 (NDM-1; [8]): 374 nM | Klebsiella pneumoniae expressing VIM-1 (IHMA 599644) MITC95 [1]: 37.5 µM | Escherichia coli expressing NDM-1 (CLB 30005) MITC95 [2]: 0.7813 µM | Serratia marcescens expressing IMP-1 (CL5741) MITC95 [3]: 150 µM | IC50 (IMP-1; [8]): 2660 nM

Cn1ccnc1-c1cccc(S(N)(=O)=O)c1-c1nn[nH]n1 [Example 38, 3-(1-methyl-1H-imidazol-2-yl)-2-(2H-tetrazol-5-yl)benzenesulfonamide]
IC50 (NDM-1; [8]): 281 nM | Klebsiella pneumoniae expressing VIM-1 (IHMA 599644) MITC95 [1]: 200 µM | Escherichia coli expressing NDM-1 (CLB 30005) MITC95 [2]: 0.7813 µM | Serratia marcescens expressing IMP-1 (CL5741) MITC95 [3]: 25 µM | IC50 (IMP-1; [8]): 2390 nM

NS(=O)(=O)c1ccc2ccccc2c1-c1nnn[nH]1 [Example 399, 1-(1H-tetrazol-5-yl)naphthalene-2-sulfonamide]
IC50 (NDM-1; [5]): 117 nM | Klebsiella pneumoniae MITC95 [1, 6]: >200 µM | Escherichia coli MITC95 [2]: 3.906 µM | Serratia marcescens MITC95 [3, 7]: >200 µM | IC50 (IMP-1; [9]): 15100 nM

NS(=O)(=O)c1cccc(-c2csc(CN3CCOCC3)c2)c1-c1nn[nH]n1 [Example 103, 3-[5-(morpholin-4-ylmethyl)thiophen-3-yl]-2-(2H-tetrazol-5-yl)benzenesulfonamide]
IC50 (NDM-1; [8]): 49.4 nM | Klebsiella pneumoniae expressing VIM-1 (IHMA 599644) MITC95 [1]: >200 µM | Escherichia coli expressing NDM-1 (CLB 30005) MITC95 [2]: 9.375 µM | Serratia marcescens expressing IMP-1 (CL5741) MITC95 [3]: 15.63 µM | IC50 (IMP-1; [8]): 311 nM

NS(=O)(=O)c1cccc(-c2ccccn2)c1-c1nn[nH]n1 [Example 93, 3-pyridin-2-yl-2-(2H-tetrazol-5-yl)benzenesulfonamide]
IC50 (NDM-1; [8]): 3.17 nM | IC50 (VIM-1; [10]): 89.8 nM | Klebsiella pneumoniae expressing VIM-1 (IHMA 599644) MITC95 [1]: 25 µM | Escherichia coli expressing NDM-1 (CLB 30005) MITC95 [2]: 0.7813 µM | IC50 (IMP-1; [8]): 331 nM

NS(=O)(=O)c1cccc(-c2ccc(OCCN3CCCCC3)cc2)c1-c1nn[nH]n1 [Example 89, 4′-(2-piperidin-1-ylethoxy)-2-(2H-tetrazol-5-yl)biphen-3-sulfonamide]
IC50 (NDM-1; [8]): 54.7 nM | Klebsiella pneumoniae expressing VIM-1 (IHMA 599644) MITC95 [1]: >200 µM | Escherichia coli expressing NDM-1 (CLB 30005) MITC95 [2]: 4.688 µM | Serratia marcescens expressing IMP-1 (CL5741) MITC95 [3]: 12.5 µM | IC50 (IMP-1; [8]): 319 nM

CN(C)c1ccc(-c2ccnc(S(N)(=O)=O)c2-c2nn[nH]n2)cn1 [Example 211, 6-(dimethylamino)-3′-(2H-tetrazol-5-yl)-[3,4′-bipyridine]-2′-sulfonamide]
IC50 (NDM-1; [8]): 45.6 nM | Klebsiella pneumoniae expressing VIM-1 (IHMA 599644) MITC95 [1]: 200 µM | Escherichia coli expressing NDM-1 (CLB 30005) MITC95 [2]: 0.3906 µM | Serratia marcescens expressing IMP-1 (CL5741) MITC95 [3]: 31.25 µM | IC50 (IMP-1; [8]): 537 nM

N=C(N)NC1CCC(CCc2ccc(-c3ccc(C4CCN(C(=N)N)CC4)cc3)c(-c3nn[nH]n3)c2S(N)(=O)=O)CC1 (stereo not shown) [Example 472, 4-(4′-(2-(4-guanidinocyclohexyl)ethyl)-3′-sulfamoyl-2′-(2H-tetrazol-5-yl)-[1,1′-biphenyl]-4-yl)piperidine-1-carboximidamide]
IC50 (NDM-1; [5]): 0.505 nM | IC50 (VIM-1; VIM-1 IC50, VIM-1 enzyme, CCF2-FA fluorescence assay): 13.4 nM | Klebsiella pneumoniae MITC95 [1, 6]: 75 µM | Escherichia coli MITC95 ([4]; Escherichia coli expressing NDM-1 (CLB30016)): 1.172 µM | Serratia marcescens MITC95 [3, 7]: 0.7813 µM | IC50 (IMP-1; [9]): 0.661 nM

NS(=O)(=O)c1cccc(C2CCC(O)CC2)c1-c1nn[nH]n1 (stereo not shown) [Example 171, 3-(4-hydroxycyclohexyl)-2-(2H-tetrazol-5-yl)benzenesulfonamide]
IC50 (NDM-1; [8]): 8.56 nM | IC50 (VIM-1; [10]): 128 nM | Klebsiella pneumoniae expressing VIM-1 (IHMA 599644) MITC95 [1]: 25 µM | Escherichia coli expressing NDM-1 (CLB 30016) MITC95 ([4]; concentration giving 95% inhibition of bacterial growth): 2.344 µM | Serratia marcescens expressing IMP-1 (CL5741) MITC95 [3]: 6.25 µM | IC50 (IMP-1; [8]): 119 nM

C[N+](C)(C)CCN1CCC(c2ccc(-c3ccc(C(F)(F)F)c(S(N)(=O)=O)c3-c3nnn[nH]3)cc2)CC1 [Example 677, N,N,N-trimethyl-2-{4-[3′-sulfamoyl-2′-(1H-tetrazol-5-yl)-4′-(trifluoromethyl)biphenyl-4-yl]piperidin-1-yl}ethanaminium]
IC50 (NDM-1; NDM-1 enzyme, CCF2-FA substrate): 4.17 nM | IC50 (VIM-1; VIM-1 enzyme, CCF2-FA substrate, read-out: VIM-1 IC50): 19.4 nM | Klebsiella pneumoniae MITC95 ([1]; Klebsiella pneumoniae IHMA599644 (VIM-1)): >200 µM | Escherichia coli MITC95 ([4]; (CLB30016, NDM-1)): 12.5 µM | Serratia marcescens MITC95 ([3]; Serratia marcescens CL5741 (IMP-1)): 12.5 µM | IC50 (IMP-1; IMP-1 enzyme, CCF2-FA substrate): 0.541 nM
